# In patent publication US12370176B2, “Methods of use for KV7 channel activators” (Biohaven Therapeutics Ltd., priority 2019, dated 2025):
# How the values were obtained:
# [1] = target: T1, KCNQ2 homomers (Kv7.2 homomers) (Homo sapiens, UniProt O43526); experiment: Whole cell voltage-clamp, wildtype KCNQ2 homomers expressed in CHO cells; format: cell-based; settings: 10.0 μM ezogabine; FIG. 11
# T1 construct: expressed in transfected cells; host or cells: CHO cells
# Protocol: Biological Assay Methods—Using lipid mediated transfection, plasmids including only wildtype (wt) KCNQ2, only wt KCNQ3, or both wt KCNQ2 and wt KCNQ3 subunits were expressed in Chinese hamster ovary (CHO) cells. Whole cell voltage-clamp protocols were used to measure gating and conductance density of wt channels before, during and after test compound application via focal pipette perfusion. The half-activating voltage (V1/2) was determined by Boltzmann fits of the conductance-voltage (G/V) curves.
# Four highly recurrent KCNQ2-EE missense variants (FIG. 3), R210H (located in S4 of the voltage-sensor), T274M (located in the pore helix), A294V (located at the border of the pore loop and S6), and R581Q/L (located in the intracellular helix C), were introduced into KCNQ2 cDNA by QuikChange site-directed mutagenesis. R210H is in S4 of the voltage-sensor, T274M is in the pore helix, A294V is at the border of the pore loop and S6, and R581Q is in the intracellular helix C. Using lipid-mediated transfection, plasmids including the pathogenic variants were co-expressed with wildtype KCNQ2 or KCNQ2 and KCNQ3 subunits in Chinese hamster ovary (CHO) cells. The KCNQ2 S5 helix mutation W236L, which abolishes EZO modulation, was used to characterize Compound A binding. […]
# [2] = target: T2, KCNQ2 W236L (Homo sapiens, UniProt O43526, W236L); experiment: Whole cell voltage-clamp, KCNQ2 W236L channels in CHO cells; format: cell-based
# T2 construct: expressed in transfected cells; host or cells: CHO cells
# Excerpt: Four highly recurrent KCNQ2-EE missense variants (FIG. 3), R210H (located in S4 of the voltage-sensor), T274M (located in the pore helix), A294V (located at the border of the pore loop and S6), and R581Q/L (located in the intracellular helix C), were introduced into KCNQ2 cDNA by QuikChange site-directed mutagenesis. R210H is in S4 of the voltage-sensor, T274M is in the pore helix, A294V is at the border of the pore loop and S6, and R581Q is in the intracellular helix C. Using lipid-mediated transfection, plasmids including the pathogenic variants were co-expressed with wildtype KCNQ2 or KCNQ2 and KCNQ3 subunits in Chinese hamster ovary (CHO) cells. The KCNQ2 S5 helix mutation W236L, which abolishes EZO modulation, was used to characterize Compound A binding. Whole cell voltage-clamp protocols were used to measure gating and conductance of wildtype channels and mutated subunit containing channels, before, during and after Compound A application via focal pipette perfusion.
compound,measurement,setting,value
"CCOC(=O)Nc1ccc(NCc2ccc(F)cc2)cc1N [EZO, ezogabine]",current density,[1],increased
same,current density,"[2]; W236L channels, 10.0 μM ezogabine, FIG. 14",did not affect
same,dependence of KCNQ2 homomer activation on W236,[2]; wildtype KCNQ2 versus W236L,"requires W236, like EZO"
